From PMC3717557 (Journal of medicinal chemistry, 2012)
Converted amounts (≈) assume the structure as drawn. Like-named read-outs stand apart in the source and are kept apart here.

Assays:
[1] = Stability in buffer at 4°C; type: physicochemical; conditions: 0.01 M Tris/HCl pH 7.4, concentration close to saturation
[2] = pKa of NH proton by UV absorbance pH titration; type: physicochemical; conditions: dilute phosphate buffer
[3] = molecular target: human α1β2γ2L GABAA receptor (Homo sapiens, UniProt P14867+P18507+P47870); type: cell-based
[4] = tested on: tadpoles; conditions: cited from earlier work
[5] = molecular target: T1, human α1β3 GABAAR (Homo sapiens, UniProt P14867+P28472); conditions: cited from earlier work
T1 sequence (P14867 28-456): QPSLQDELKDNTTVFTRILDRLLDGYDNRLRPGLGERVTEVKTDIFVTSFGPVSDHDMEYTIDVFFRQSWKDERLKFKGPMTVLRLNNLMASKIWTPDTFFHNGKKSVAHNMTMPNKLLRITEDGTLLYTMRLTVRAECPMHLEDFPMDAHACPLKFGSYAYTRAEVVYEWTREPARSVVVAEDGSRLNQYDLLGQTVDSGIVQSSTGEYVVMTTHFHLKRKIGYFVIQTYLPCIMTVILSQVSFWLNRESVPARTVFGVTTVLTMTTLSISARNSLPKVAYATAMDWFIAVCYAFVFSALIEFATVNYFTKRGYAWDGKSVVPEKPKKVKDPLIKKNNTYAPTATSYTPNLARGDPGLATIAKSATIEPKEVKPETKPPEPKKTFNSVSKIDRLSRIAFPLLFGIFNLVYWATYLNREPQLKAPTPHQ
T1 sequence (P28472 26-473): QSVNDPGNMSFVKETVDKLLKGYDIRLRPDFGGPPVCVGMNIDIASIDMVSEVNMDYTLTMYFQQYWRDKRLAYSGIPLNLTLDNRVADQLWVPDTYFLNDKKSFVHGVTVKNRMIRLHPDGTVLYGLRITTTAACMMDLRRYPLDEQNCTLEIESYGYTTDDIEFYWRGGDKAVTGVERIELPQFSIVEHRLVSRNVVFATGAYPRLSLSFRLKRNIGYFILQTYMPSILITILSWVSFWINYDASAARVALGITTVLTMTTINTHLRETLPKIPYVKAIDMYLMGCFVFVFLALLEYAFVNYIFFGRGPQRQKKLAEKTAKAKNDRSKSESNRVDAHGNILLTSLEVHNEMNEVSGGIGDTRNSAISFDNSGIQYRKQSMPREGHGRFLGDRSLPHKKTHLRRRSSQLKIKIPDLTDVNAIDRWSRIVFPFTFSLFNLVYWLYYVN

[6] = cited from earlier work
[7] = cited from earlier work; remark: listed apart in the source
[8] = cited from earlier work; remark: listed apart in the source
[9] = tested on: GABAA receptor; conditions: concentrations close to anesthetic EC50 (65 μM); cited from earlier work
[10] = read-out: general anesthetic EC50
[11] = read-out: EC50, tadpole loss of righting reflex

human α1β2γ2L GABAA receptor, sequence (P47870 25-512 limits assumed, one chain of several): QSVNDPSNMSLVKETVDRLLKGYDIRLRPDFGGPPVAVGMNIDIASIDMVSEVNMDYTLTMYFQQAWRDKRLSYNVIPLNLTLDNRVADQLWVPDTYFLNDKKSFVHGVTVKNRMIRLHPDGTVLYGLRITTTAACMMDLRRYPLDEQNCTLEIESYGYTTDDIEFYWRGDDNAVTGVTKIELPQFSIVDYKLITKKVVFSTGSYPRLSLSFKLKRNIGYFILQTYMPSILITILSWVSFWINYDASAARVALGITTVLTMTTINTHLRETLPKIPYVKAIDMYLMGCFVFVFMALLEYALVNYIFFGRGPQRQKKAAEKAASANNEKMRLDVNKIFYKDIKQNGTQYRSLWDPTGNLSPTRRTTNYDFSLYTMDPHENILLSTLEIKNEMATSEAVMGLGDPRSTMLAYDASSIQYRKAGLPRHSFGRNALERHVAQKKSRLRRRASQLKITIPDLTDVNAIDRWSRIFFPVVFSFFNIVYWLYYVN
human α1β2γ2L GABAA receptor, sequence (P18507 40-475, one chain of several): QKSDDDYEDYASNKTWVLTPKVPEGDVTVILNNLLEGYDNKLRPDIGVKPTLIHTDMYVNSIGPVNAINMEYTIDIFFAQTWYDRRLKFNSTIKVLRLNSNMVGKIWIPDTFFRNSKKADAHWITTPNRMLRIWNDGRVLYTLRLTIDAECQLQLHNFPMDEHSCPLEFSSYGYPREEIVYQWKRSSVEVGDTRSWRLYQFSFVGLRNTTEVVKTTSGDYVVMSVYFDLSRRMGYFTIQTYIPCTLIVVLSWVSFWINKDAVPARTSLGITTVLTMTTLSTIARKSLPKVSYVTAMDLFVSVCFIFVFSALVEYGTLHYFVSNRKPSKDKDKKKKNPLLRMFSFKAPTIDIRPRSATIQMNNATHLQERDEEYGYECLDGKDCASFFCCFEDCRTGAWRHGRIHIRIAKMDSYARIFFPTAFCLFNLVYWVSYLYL

C=CCC1(c2cccc(C3(C(F)(F)F)N=N3)c2)C(=O)NC(=O)N(C)C1=O (racemic) [(±)-14, (±)-5-Allyl-1-methyl-5-[3-(3-trifluoromethyl-3H-diazirin-3-yl)-phenyl]-pyrimidine-2,4,6-trione]
time stable in buffer [1]: at least 2.5 days
pKa [2]: 7.48 ± 0.08

NCCCC(=O)O [GABA, γ-aminobutyric acid]
GABA concentration response nH ([3]; GABA alone): 1.8 ± 0.1

CCOC(=O)c1cncn1[C@H](C)c1ccccc1 [R-(+)-etomidate]
EC50 [4, 10]: 2.3 µM

C=CC[C@@]1(c2cccc(C3(C(F)(F)F)N=N3)c2)C(=O)NC(=O)N(C)C1=O [R-(−)-14]
GABA nH in the presence of compound ([3]; 8 μM compound): 1.0 ± 0.1

C[C@H](c1ccccc1)n1cncc1C(=O)OCc1ccc(C2(C(F)(F)F)N=N2)cc1 [aryldiazirine analog of etomidate]
efficiency of α1β3 GABAAR subunit photolabeling [5]: 0.5%

CCC1(c2ccccc2)C(=O)NC(=O)N(C)C1=O (stereo not drawn) [mephobarbital]
EC50 [4, 11]: 90 µM
solubility in water [6]: 600 µM (≈ 148 µg/mL)
octanol/water partition coefficient [7]: 69
pKa [8]: 7.65

C=CCC1(C(C)C#CCC)C(=O)N=C(O)N(C)C1=O (stereo not drawn) [methohexital]
EC50 [4, 11]: 20 µM

CCCC(C)C1(CC)C(=O)NC(=O)NC1=O (stereo not drawn) [pentobarbital, 5-ethyl-5-(pentan-2-yl)pyrimidine-2,4,6(1H,3H,5H)-trione]
fold potentiation of 10 μM GABA currents [9]: 4-6 fold
EC50 ([4]; read-out: EC50 producing anesthesia in tadpoles): ~140 µM

CCC1(c2ccccc2)C(=O)NC(=O)NC1=O [phenobarbital]
EC50 [4, 11]: 3300 µM

CC(C)c1cccc(C(C)C)c1O [propofol]
EC50 [4, 10]: 2.2 µM
